From patent US20250099420A1, “SMALL MOLECULE MODULATORS OF GPR139 COMPLEX” (University of Florida Research Foundation, Incorporated, priority 2022, published 2025)

Tests used:
parental HEK cells [1] = experiment: HEK parental Antagonist Counterscreen Assay (non-transfected cells, acetylcholine control); type: cell-based; settings: for EC50: Homo sapiens, HEK293, acetylcholine as control, scientific notation, molarity
GPR139 [2] = molecular target: T1, GPR139 (Homo sapiens, UniProt Q6DWJ6); experiment: GPR139 Antagonist titration assay (calcium detection, HEK-GPR139 cells, vs EC80 of S-JNJ-63533054); settings: for GPR139 Antagonist Activity Averaged Max % Response (±St. Dev.): activity relative to known control; for GPR139 Antagonist Activity Lipophilic Efficiency (logD): based on logD; for GPR139 Antagonist Activity Lipophilic Efficiency (logP): based on logP; for GPR139 Antagonist Activity Hill Slope: fitted dose-response curve
T1 sequence (Q6DWJ6 1-353): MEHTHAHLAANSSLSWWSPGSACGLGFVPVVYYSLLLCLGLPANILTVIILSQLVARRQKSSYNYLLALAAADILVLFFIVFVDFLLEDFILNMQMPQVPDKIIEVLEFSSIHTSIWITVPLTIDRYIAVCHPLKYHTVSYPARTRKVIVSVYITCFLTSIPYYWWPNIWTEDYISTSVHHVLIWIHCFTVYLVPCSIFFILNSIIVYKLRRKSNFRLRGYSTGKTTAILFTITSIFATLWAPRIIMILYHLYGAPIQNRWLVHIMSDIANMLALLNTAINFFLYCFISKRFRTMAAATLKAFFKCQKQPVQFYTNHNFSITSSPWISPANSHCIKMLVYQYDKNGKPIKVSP
Procedure: GPR activity was assessed using a calcium detection assay. GPR139 agonists stimulate an increase in intracellular calcium in HEK-GPR139 cells. Agonists increase the release of intracellular calcium, while antagonists decrease the release of intracellular calcium, as compared to an EC80 stimulation of the know agonist S-JNJ-63533054. The positive control for the agonist mode was cells treated with EC100 of known agonist S-JNJ-63533054. Negative control samples were treated with DMSO. The antagonist high control in cells was EC80 of S-JNJ-63533054+IC100 S-JNJ-3792165, while cells were treated with EC80 of S-JNJ-63533054+DMSO for the low control. Intracellular calcium was measured using Calcium 5.
HEK cells were transfected the DNA encoding GPR139 and incubated for 24 hours. 3000 cells/well in 3 μL HEPES and 1% DMSO were seeded into 1536-well plates. 3 μL Calcium 5 was then added to each well and cells were incubated for 60 min. at 37° C. in 5% CO2 and 95% relative humidity. Cells were pretreated with 50 nL DMSO (5 min. at room temperature in the dark) to stabilize response and desensitize cells to DMSO. A 5 second basal read was recorded and compounds in 30 nL were added to the cells, followed by a 150 second read.
B. Antagonist Mode: The “High Control” represented wells containing cells with GPR139+Antagonist IC100+Agonist EC80. “Low Control” represented wells containing cells with GPR139 with EC100 Agonist. “0% control” and sample field represented wells containing cells with GPR139 with EC80 Agonist with DMSO or compounds. The Z′ and S:B for this assay were calculated using the High Control and Low Control wells.
The HEK parental counterscreen utilized the same cells but not transfected with the plasmid. Acetylcholine was used in place of GPR139 agonist as the control compound. The cells were plated overnight, similar to the HEK antagonist counterscreen protocol.
The GPR139 Agonist and Antagonist titration assays employed the same reagents, protocols, and detection systems as the primary assays, but tested each as 10 point dose response starting at 676 nM concentration in triplicate with 1:3 dilutions. The HEK parental counterscreens utilized the same cells but not transfected with the plasmid. Acetylcholine was used in place of GPR139 agonist as the control compound. The cells were plated overnight, similar to the HEK antagonist counterscreen protocol.
For each test compound, percent activation was plotted against compound concentration. A four parameter equation describing a sigmoidal dose-response curve was then fitted with adjustable baseline using Assay Explorer software (Symyx Technologies Inc.).

GPR139 [3] = molecular target: T1, GPR139; experiment: GPR139 Agonist titration / agonist counterscreen assay (calcium detection, HEK-GPR139 cells); type: cell-based; parameters: expressed in transfected cells; host or cells: HEK Aequorin cells, Maxcyte transient transfection; settings: for EC50: scientific notation, molarity, read-out: GRP139 Agonist activity EC50
Procedure: GPR activity was assessed using a calcium detection assay. […] Negative control samples were treated with DMSO. […] Intracellular calcium was measured using Calcium 5.

parental HEK cells [4] = experiment: HEK parental Agonist Counterscreen Assay (non-transfected cells); type: cell-based; settings: HEK Agonist Activity
Excerpt: The high control for the agonist counterscreen was Forskolin not acetylcholine.

[5] = agonist counterscreen of the antagonists

| EC50 (GPR139 [2]) [µM] | GPR139 Antagonist Activity Ligand Efficiency (GPR139 [2]) | GPR139 Antagonist Activity Averaged Max % Response (±St. Dev.) (GPR139 [2]) [%] | GPR139 Antagonist Activity Lipophilic Efficiency (logD) (GPR139 [2]) | GPR139 Antagonist Activity Lipophilic Efficiency (logP) (GPR139 [2]) | GRP139 Agonist activity Averaged Max % Response (±St. Dev.) (GPR139 [3]; [5]) | EC50 (GPR139 [3]; [5]) [µM] | GPR139 Antagonist Activity Hill Slope (GPR139 [2]) | GRP139 Agonist activity Hill Slope (GPR139 [3]; [5]) | Averaged Max % Response (±St. Dev.) (GPR139 [3]; GPR139 Agonist Activity, activity relative to known control) [%] | Lipophilic Efficiency (logD) (GPR139 [3]; GPR139 Agonist Activity, based on logD) | Lipophilic Efficiency (logP) (GPR139 [3]; GPR139 Agonist Activity, based on logP) | Hill Slope (GPR139 [3]; GPR139 Agonist Activity, fitted dose-response curve) | Efficiency Ligand (GPR139 [3]; GPR139 Agonist Activity, ligand efficiency) | Lipophilic Efficiency (logD) (parental HEK cells [4]) | Lipophilic Efficiency (logP) (parental HEK cells [4]) | SMILES | HEK antagonist activity Averaged Max % Response (±St. Dev.) (parental HEK cells [1]) | EC50 (parental HEK cells [1]) [µM] | Averaged Max % Response (±St. Dev.) (parental HEK cells [4]; activity relative to known control) [%] | EC50 (parental HEK cells [4]; Homo sapiens, HEK293, parental non-transfected HEK cells) [µM] |
| --- | --- | --- | --- | --- | --- | --- | --- | --- | --- | --- | --- | --- | --- | --- | --- | --- | --- | --- | --- | --- |
| > 4.5 | 0.29 | 80.54 ± 5.09 | 0.71 | 0.71 | 28.29 ± 7.43% | > 13.6 | – | – | – | – | – | – | – | – | – | Cc1ccc(Oc2ccc(OCC(=O)N3C(C)CCCC3C)cc2)cc1 (stereo not shown) [SR-01000445554] | 26.51 ± 5.44% | > 13.6 | – | – |
| – | 0.31 | 48.35 ± 1.75 | 1.00 | 1.00 | 4.88 ± 6.79% | – | – | – | – | – | – | – | – | – | – | CC(=O)N1N=C(c2ccc(C)cc2)CC1c1ccccc1F (stereo not shown) [SR-01000429850] | −3.2E+0 ± 5.20 ^ % | > 15.5 | – | – |
| 0.98 | 0.37 | 82.02 ± 2.67 | 2.55 | 1.57 | 68.19 ± 17.63% | 9.1 | 1.59 | 1.01 | – | – | – | – | – | – | – | O=c1c(-c2ccc(Cl)cc2)c(C(F)(F)F)oc2cc(O)ccc12 [SR-01000438114] | 104.21 ± 5.67% | 4.2 | – | – |
| 3.7 | 0.33 | 90.45 ± 2.75 | 1.62 | 1.62 | 6.87 ± 7.17% | > 14.1 | 1.05 | – | – | – | – | – | – | – | – | O=C(CCC(=O)OCc1ccc(Br)cc1)Nc1ccc(F)cc1 [SR-01000259336] | 26.21 ± 5.54% | > 14.1 | – | – |
| 2.9 | 0.30 | 82.24 ± 3.16 | 2.79 | 2.79 | −2.6E+0 ± 5.18 ^ % | > 14.1 | 1.53 | – | – | – | – | – | – | – | – | COc1ccc(OC)c(NC2=C(Cl)C(=O)N(c3ccccc3C)C2=O)c1 [SR-01000228964] | 24.51 ± 4.86% | > 14.1 | – | – |
| 5 | 0.26 | 77.15 ± 0.74 | −521.6E−3 | −521.7E−3 | 5.85 ± 3.71% | > 11.3 | 1.24 | – | – | – | – | – | – | – | – | O=C(CSc1nc(-c2ccccc2)cn1-c1ccc(F)cc1)Nc1ccccc1 [SR-01000555413] | −6.1E+0 ± 7.39 ^ % | > 11.3 | – | – |
| 10.2 | 0.30 | 60.57 ± 14.37 | 1.28 | 1.28 | −11.2 ± 4.96% | > 13.3 | 1.32 | – | – | – | – | – | – | – | – | Brc1ccc2[nH]cc(-c3nnc4ccc5ccccc5n34)c2c1 [SR-01000524226] | −2.2E+0 ± 7.28 ^ % | > 13.3 | – | – |
| 1.1 | 0.24 | 90.79 ± 3.84 | −130.5E−3 | −130.5E−3 | 19.55 ± 6.15% | > 10.5 | 1.41 | – | – | – | – | – | – | – | – | COc1cccc(OC)c1C(=O)Oc1ccc2c(=O)c(-c3ccc(Cl)cc3)c(C(F)(F)F)oc2c1 [SR-01000471218] | 69.47 ± 1.93% | 10.1 | – | – |
| 5.2 | 0.25 | 71.75 ± 3.35 | −1.4E+0 | −1.4E+0 | 1.48 ± 6.53% | > 11 | 0.81 | – | – | – | – | – | – | – | – | Cc1ccc(-n2cc(-c3ccccc3)nc2OCC(=O)Nc2ccccc2C)cc1 [SR-01000555462] | 9.21 ± 12.02% | > 11 | – | – |
| 7.9 | 0.22 | 56.80 ± 4.90 | −1.1E+0 | −1.1E+0 | 3.89 ± 5.42% | > 10.8 | 0.94 | – | – | – | – | – | – | – | – | COc1ccc(C(C(=O)NC(C)c2ccccc2)(c2ccccc2)c2ccccc2)cc1 (stereo not shown) [SR-01000529482] | 16.45 ± 6.46% | > 10.8 | – | – |
| – | 0.22 | 56.13 ± 9.03 | 2.24 | 2.24 | −987E−3 ± 9.16 ^ % | – | 1.46 | – | – | – | – | – | – | – | – | CCOC(=O)N1CCC(NC(=O)c2cnn3c(O)c(Cc4cccc(C)c4)c(C)nc23)CC1 [SR-01000581959] | 14.54 ± 9.66% | > 13.4 | – | – |
| 5.9 | 0.39 | 70.81 ± 7.08 | 2.11 | 2.11 | 25.24 ± 7.47% | > 14.3 | 1.05 | – | – | – | – | – | – | – | – | N#CCC(=O)c1ccccc1Oc1ccc(F)cc1 [SR-01000308363] | 14.98 ± 11.31% | > 14.3 | – | – |
| 3.9 | 0.47 | 80.83 ± 4.99 | 2.61 | 2.61 | 21.98 ± 2.69% | > 15.3 | 1.01 | – | – | – | – | – | – | – | – | CC1=NN(Cc2ccc(Cl)cc2Cl)C(=O)C1 [SR-01000043246] | 6.06 ± 11.65% | > 15.3 | – | – |
| 2.1 | 0.23 | 82.63 ± 2.69 | 1.36 | 1.36 | 3.98 ± 7.81% | > 10.6 | 0.63 | – | – | – | – | – | – | – | – | COc1cc(C(=O)Nc2ccc(N3C(=O)c4ccc(Cl)cc4C3=O)c(C)c2)cc(OC)c1OC [SR-01000419723] | 25.06 ± 17.50% | > 10.6 | – | – |
| 2.2 | 0.27 | 58.56 ± 7.31 | −1.6E+0 | −1.6E+0 | 6.60 ± 4.93% | > 8.9 | 1.46 | – | – | – | – | – | – | – | – | Cc1cc(C)c(NC(=O)c2ccc(Br)cc2)c(C)c1NC(=O)c1ccc(Br)cc1 [SR-01000512383] | 33.99 ± 7.44% | > 8.9 | – | – |
| – | – | – | – | – | – | – | – | – | 120.85 ± 28.06 | 4.18 | 4.18 | 0.72 | 0.47 | 1.26 | 1.26 | Cc1ccc(CCNC(=O)Cn2cc3c(n2)CCCCC3)cc1 [SR-01000088477] | – | – | −0.30 ± 8.57 | > 14.1 |
